Laboratory results published in US20060160879A1, “Indoles useful in the treatment of inflammation” (priority 2003, published 2006).

What follows are molecules tested against T1, mPGES-1 (Homo sapiens, UniProt O14684) (assay: mPGES-1 assay: conversion of PGH2 to PGE2, PGE2 analysed by HPLC).
T1 construct: made in house; host or cells: E. coli (membrane fraction)
T1 sequence (O14684 1-152): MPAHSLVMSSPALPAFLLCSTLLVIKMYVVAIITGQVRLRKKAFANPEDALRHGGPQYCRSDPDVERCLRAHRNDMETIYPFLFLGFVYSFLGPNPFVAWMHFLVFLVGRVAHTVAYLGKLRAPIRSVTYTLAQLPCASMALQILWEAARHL
Format: biochemical
Design: dose or concentration left out as unconfirmed
Method: In the assay mPGES-1 catalyses the reaction where the substrate PGH2 is converted to PGE2. mPGES-1 is expressed in E. coli and the membrane fraction is dissolved in 20 mM NaPi-buffer pH 8.0 and stored at −80° C. In the assay mPGES-1 is dissolved in 0.1M KPi-buffer pH 7.35 with 2.5 mM glutathione. The stop solution consists of H2O/MeCN (7/3), containing FeCl2 (25 mM) and HCl (0.15 M). The assay is performed at room temperature in 96-well plates. Analysis of the amount of PGE2 is performed with reversed phase HPLC (Waters 2795 equipped with a 3.9×150 mm C18 column). The mobile phase consists of H2O/MeCN (7/3), containing TFA (0.056%), and absorbance is measured at 195 nm with a Waters 2487 UV-detector.
The following is added chronologically to each well: • 1. 100 μL mPGES-1 in KPi-buffer with glutathione. Total protein concentration: 0.02 mg/mL. • 2. 1 μL inhibitor in DMSO. Incubation of the plate at room temperature for 25 minutes. • 3. 4 μL of a 0.25 mM PGH2 solution. Incubation of the plate at room temperature for 60 seconds. • 4. 100 μL stop solution. • 180 μL per sample is analyzed with HPLC.

Row | Compound | inhibition of mPGES-1
1 | CC(C)(C)c1ccc(-c2ccc3c(-c4ccccc4)c(C(=O)O)n(Cc4cccc(Oc5ccccc5)c4)c3c2)cc1 [Example 1, 6-(4-tert-Butylphenyl)-1-(3-phenoxybenzyl)-3-phenylindole-2-carboxylic acid] | 96%
2 | O=C(O)c1c(-c2ccccc2)c2cc(-c3ccc4c(c3)OCO4)ccc2n1CCCc1ccccc1 [Example 3, 5-(3,4-Methylenedioxyphenyl)-3-phenyl-1-(3-phenylpropyl)indole-2-carboxylic acid] | 85%
3 | O=C(O)c1cccc(-c2c(C(=O)O)n(Cc3cccc([N+](=O)[O-])c3)c3cc(-c4ccc(OCc5ccccc5)cc4)ccc23)c1 [Example 5, 6-(4-Benzyloxyphenyl)-3-(3-carboxyphenyl)-1-(3-nitrobenzyl)indole-2-carboxylic acid] | 93%
4 | O=C(O)c1cccc(-c2c(C(=O)O)n(Cc3cccc(C(F)(F)F)c3)c3cccc(-c4ccccc4)c23)c1 [Example 6, 3-(3-Carboxyphenyl)-4-phenyl-1-[3-(trifluoromethyl)benzyl]indole-2-carboxylic acid] | 100%

Further lines, results first:

Row | inhibition of mPGES-1 | Compound
5 | 100% | CC(C)(C)c1ccc(-c2ccc3c(-c4cccs4)c(C(=O)O)n(Cc4cccc(Oc5ccccc5)c4)c3c2)cc1 [Example 2, 6-(4-tert-Butylphenyl)-1-(3-phenoxybenzyl)-3-(2-thienyl)indole-2-carboxylic acid]
6 | 81% | O=C(O)c1c(-c2ccccc2)c2cc(-c3cccnc3)ccc2n1CCCc1ccccc1 [Example 4, 3-Phenyl-1-(3-phenylpropyl)-5-(3-pyridyl)indole-2-carboxylic acid]
